According to paper PMC8456950, “Structure‐Guided Design of G‐Protein‐Coupled Receptor Polypharmacology” (Angewandte Chemie (International Ed. in English), 2021):

Legend:
Human A2AAR [1] = target: T1, Human A2AAR (Homo sapiens, UniProt P29274); test: A2AAR competition binding ([3H]-ZM241385 displacement); design: expressed in transfected cells; host or cells: HeLa-A2AAR cell line (membranes); conditions: for Ki: radioligand displacement, mean±SEM of three experiments in duplicate, read-out: A2AAR binding affinity Ki; for A2AAR % displacement at 10 μM: 10 μM compound, mean±SEM of three experiments
Protocol: Binding assays. Human A2AAR competition binding experiments were carried out in multiscreen GF/C 96-well plates (Millipore, Madrid, Spain) pretreated with binding buffer (50 mM Tris-HCl, 1 mM EDTA, 10 mM MgCl2, 2 U/ml adenosine deaminase, pH=7.4).
Each well contained 5 µg of membranes from a He l a-A2AAR cell line (protein concentration […]
compound studied. Non-specific binding was determined in the presence of 50 µM NE C A (Sigma E2387). The reaction mixture (200 µl/well) was incubated at 25 °C for 30 min, after which it was filtered and washed four times with 250 µl wash buffer (50 mM Tris -HCl, 1 mM EDTA, 10 mM MgCl 2, pH=7. 4) before measuring in a microplate beta scintillation counter (Microbeta Trilux, PerkinElmer, Madrid, Spain). Three independent experiments were carried out to calculate K i values (n=3). […]

Human D2R [2] = target: T2, Human D2R (Homo sapiens, UniProt P14416); test: D2R functional cAMP (HTRF) assay in CHO-D2 #S20 cells; format: cell-based; conditions: for EC50: cAMP HTRF, CHO-D2 cells, forskolin 10 µM, mean±SEM n=3; for Emax: relative to the maximal effect of dopamine
T2 construct: expressed in transfected cells; host or cells: CHO-D2R #S20 cell line (membranes)
Protocol: KB=I C50/(1+([NECA]/EC50 NECA)).
Functional assays for the human D2R were carried out in a CHO-D2 #S20 cell line. 5,000 cells were seed ed in 30 µl of Opti-ME M (Invitrogen 11058) and 500µM IBMX (Sigma 17018) on a 96-well isoplate (PerkinElmer 6005030). The studied compounds wer e then added and incubated for 10 min at 37 °C with gentle stirring (150 rpm). Then, 10 µM […]
forskolin (Sigma 17018) was added and incubated for 5 min at 37 °C with gentle stirring (150 rpm). Reagents (#CISBIO 62AM4PEC) were added and, after incubation for 60 min at rt with gentle stirring (90 rpm) and protected from light, homogeneous time resolved fluorescence (HTRF, λEx: 320 nm; λEm: 620-665 nm) from each well was measured using a Tecan Infinite M1000 Pro. Data were normalized to the maximum effect of dopamine. EC50 and Ema x values were obtained after fitting the d ata to a four -parameter logistic equatio n using Prism V2. 1 (Graph Pad Inc, Chicago, USA) . […]

Human D2R [3] = target: T2, Human D2R; test: D2R competition binding ([3H]-spiperone displacement); conditions: for Ki: read-out: D2R binding affinity Ki; for D2R % displacement at 10 μM: 10 μM compound, mean±SEM of three experiments
Protocol: Human D2R competition binding experiments w ere carried out in polypropylene 96-well plates. Each well contained 10 µg of membranes from a CHO-D2R #S20 cell line (protein concentration of 3241 µg/ml), 0.4 nM [3H]-spiperone (80. 2 Ci/mmol, 1 mCi/ml, Perkin […]
The reaction mixture (250 µl/well) was incubated at 25°C for 120 min , after which 200 µL was transferred to a GF/C 96 -well plate (Millipore, Madrid, Spain) pretreated with 0. 5% of PEI and treated with binding buffer (50 mM Tris-HCl, 1 mM EDTA, 5 mM MgCl2, 5 mM KCl, 120 mM NaCl, pH=7.4). The […]
samples were filtered and washed four times with 250 µl wash buffer (50 mM Tris-HCl, 0.9% NaCl, pH=7.4) before measuring in a microplate beta scintillation counter (Microbeta Trilux, PerkinElmer, Madrid, Spain). Three independent exp eriments were carried out to calculate Ki values (n=3). […]

Human A2AAR [4] = target: T1, Human A2AAR; test: A2AAR functional assay, inhibition of NECA-elicited cAMP production in CHO-A2A cells; format: cell-based; design: expressed in transfected cells; conditions: mean±SEM n=3
Protocol: Functional assays. For the human A2AAR, functional experiments measuring cAMP production were carried out in CHO-A2A cell line. The day before the assay, the cells were seeded on a 96-well culture plate (Falcon 353072). The cells were washed with wash buffer (Dulbecco’s modified eagle’s medium nutrient mixture F-12 ham (Sigma D8062), 25 mM Hepes; pH=7.4). Wash buffer was then replaced by incubation buffer (Dulbecco’s modified eagle’s medium nutrient mixture F-12 ham (Sigma D8062), 25 mM Hepes, 20 µM Rolipram, pH=7.4). The studied compounds wer e added and incubated at 37 °C for 15 min. After incubation, NECA (Sigma E2387) was added in several concentrations and incubated at 37 °C for 15 min. After incubation, the amount of cAMP was determined using the cAMP Biotrak Enzymeimmunoassay (EIA) System Kit (GE Healthcare RPN225). Data were adjusted to non-linear fitting by using Prism V2.1 (GraphPad Inc, Chicago USA). K B values were calculated from the IC50 values obtained for each compound by using the formula:
KB=I C50/(1+([NECA]/EC50 NECA)). […]

Human A1AR = target: T3, Human A1AR (Homo sapiens, UniProt P30542); test: A1AR competition binding ([3H]-DPCPX); conditions: 10 µM compound, n=2
T3 construct: expressed in transfected cells; host or cells: CHO-A1AR cell line (membranes)
T3 sequence (P30542 1-326): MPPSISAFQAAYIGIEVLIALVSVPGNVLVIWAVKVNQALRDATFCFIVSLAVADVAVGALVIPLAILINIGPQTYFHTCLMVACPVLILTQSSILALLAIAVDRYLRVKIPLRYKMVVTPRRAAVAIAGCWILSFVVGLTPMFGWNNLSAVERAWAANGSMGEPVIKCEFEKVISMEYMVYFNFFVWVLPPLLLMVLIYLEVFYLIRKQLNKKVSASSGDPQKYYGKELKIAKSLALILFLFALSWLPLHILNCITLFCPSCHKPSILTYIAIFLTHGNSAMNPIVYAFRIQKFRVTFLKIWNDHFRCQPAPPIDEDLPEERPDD
Protocol: Human A1AR competition binding experiments were carried out in multiscreen GF/C 96 -well plates (Millipore, Madrid, Spain) pretreated with assay buffer ( 20 mM Hepes, 100 mM NaCl, 10 mM MgCl2, 2 U/ml adeno sine deamina se, pH=7.4). Each well contained 5 µg of membranes from a CHO-A1AR cell line, 1 nM [3H]-DPCPX (137 Ci/mmol, 1 mCi/Ml, Perkin Elmer NET974001MC), and the compound studied. Non-specific binding was determined in the presence of R-PIA 10 µM (Sigma P4532). The reaction mixture (200 µl/well) was incubated at 25°C for 60 min. The samples were then filtered and washed four times with 250 µl wash buffer (20 mM Hepes, 100 mM NaCl, 10 mM MgCl2, pH=7.4) before measuring in a microplate beta scintillati on counter (Microbeta Trilux, PerkinElmer, Madrid, Spain). Two independent experiments were carried out to calculate K i values (n=2). […]

[5] = radioligand displacement, mean±SEM of three experiments in duplicate

T1 sequence (P29274 whole entry): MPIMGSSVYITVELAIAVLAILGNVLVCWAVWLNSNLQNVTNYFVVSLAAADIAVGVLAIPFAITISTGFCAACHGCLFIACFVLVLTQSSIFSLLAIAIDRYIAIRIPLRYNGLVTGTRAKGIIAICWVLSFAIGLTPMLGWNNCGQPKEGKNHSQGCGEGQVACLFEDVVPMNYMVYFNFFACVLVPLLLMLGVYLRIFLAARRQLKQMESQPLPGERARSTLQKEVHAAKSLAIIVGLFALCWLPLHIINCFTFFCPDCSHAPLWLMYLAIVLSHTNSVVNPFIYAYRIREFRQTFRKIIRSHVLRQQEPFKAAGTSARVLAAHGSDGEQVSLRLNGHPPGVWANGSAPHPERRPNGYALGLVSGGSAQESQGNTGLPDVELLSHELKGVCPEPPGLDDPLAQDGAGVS
T2 sequence (P14416 whole entry): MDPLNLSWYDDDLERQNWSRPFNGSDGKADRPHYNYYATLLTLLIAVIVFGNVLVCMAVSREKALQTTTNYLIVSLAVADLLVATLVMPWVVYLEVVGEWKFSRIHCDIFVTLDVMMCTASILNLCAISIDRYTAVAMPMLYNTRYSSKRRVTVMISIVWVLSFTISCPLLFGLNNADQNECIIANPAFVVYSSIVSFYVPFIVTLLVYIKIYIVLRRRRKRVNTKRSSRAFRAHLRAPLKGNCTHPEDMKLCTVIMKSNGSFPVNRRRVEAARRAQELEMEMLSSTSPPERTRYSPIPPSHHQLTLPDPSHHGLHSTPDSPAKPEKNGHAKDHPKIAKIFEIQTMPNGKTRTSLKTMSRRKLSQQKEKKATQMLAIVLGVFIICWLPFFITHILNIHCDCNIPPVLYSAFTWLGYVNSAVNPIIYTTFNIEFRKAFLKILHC

Row | Ki (Human A2AAR [1]) | EC50 (Human D2R [2]) | Emax (Human D2R [2]) | Ki (Human D2R [3]; [5]) | A2AAR % displacement at 10 μM (Human A2AAR [1]) | Compound | further results
1 | 1100 ± 200 nM | 5000 ± 2800 nM | 81 ± 6% | 2200 ± 300 nM |  | CN(CCC(=O)Nc1nc2c(Br)cccc2s1)C1Cc2ccccc2C1 [Compound 33] | 
2 | 2900 ± 600 nM |  |  | 200 ± 20 nM |  | CCCN(CCCCC(=O)Nc1nc2c(F)cccc2s1)C1Cc2ccccc2C1 [Compound 23] | 
3 |  |  |  | 670 ± 60 nM | 7 ± 4% | Cc1ccc(NC(=O)CCCCN(C)C2Cc3ccccc3C2)nc1 [Compound 6] | 
4 | 190 ± 30 nM | 1500 ± 20 nM | 62 ± 9% | 340 ± 30 nM |  | CN(CCCCC(=O)Nc1nc2c(Br)cccc2s1)C1Cc2ccccc2C1 [Compound 20] | improvement of A2AAR affinity over compound 2 (Human A2AAR [1]; relative to 2): > 6 fold; Kb (Human A2AAR [4]): 320 ± 30 nM
5 | 5600 ± 900 nM |  |  | 290 ± 30 nM | significant radioligand displacement | CN(CCCCNc1nc(-c2ccccc2)nc2[nH]ccc12)C1Cc2ccccc2C1 [Compound 3] | D2R % displacement at 10 μM (Human D2R [3]): significant radioligand displacement
6 |  |  |  | 430 ± 50 nM | 4 ± 4% | Cc1cc(C)n2nc(NCCCCN(C)C3Cc4ccccc4C3)nc2n1 [Compound 11] | 
7 |  |  |  |  | 4 ± 3% | CN(C)c1ncnc(NC(=O)CCCCN(C)C2Cc3ccccc3C2)n1 [Compound 7] | 
8 | 720 ± 70 nM | 8900 ± 2700 nM | 105 ± 5% | 1900 ± 300 nM |  | CCN(CCC(=O)Nc1nc2c(OC)ccc(OC)c2s1)C1Cc2ccccc2C1 [Compound 40] | 
9 |  |  |  |  | 8 ± 3% | CN(CCCCNc1ncc2ccn(C)c2n1)C1Cc2ccccc2C1 [Compound 10] | 
10 | 1600 ± 300 nM | 5200 ± 2600 nM | 88 ± 13% | 630 ± 50 nM |  | Cc1cccc2sc(NC(=O)CCCN(C)C3Cc4ccccc4C3)nc12 [Compound 31] | 
11 |  |  |  | 680 ± 50 nM | 3 ± 2% | Cc1nc(NC(=O)CCCCN(C)C2Cc3ccccc3C2)sc1C [Compound 5] | 
12 | 1300 ± 200 nM | 28000 ± 9000 nM | 107 ± 6% | 2000 ± 300 nM |  | CCN(CCC(=O)Nc1nc2c(OC)ccc(C)c2s1)C1Cc2ccccc2C1 [Compound 39] | 
13 | 370 ± 50 nM | 26000 ± 14000 nM | 89 ± 18% | 390 ± 30 nM |  | COc1cccc2sc(NC(=O)CCCCN(C)C3Cc4ccccc4C3)nc12 [Compound 18] | A1AR % displacement at 10 µM (Human A1AR): 18 ± 3%
14 | 630 ± 80 nM |  |  | 330 ± 20 nM |  | CCN(CCCCC(=O)Nc1nc2c(OC)cccc2s1)C1Cc2ccccc2C1 [Compound 21] | 
15 | 8100 ± 3800 nM |  |  |  |  | CCCCCC(=O)Nc1nc2c(C)cccc2s1 [Compound 12] | D2R % displacement at 10 μM (Human D2R [3]): 1±2%
16 | 8400 ± 1300 nM |  |  | 330 ± 30 nM | significant radioligand displacement | CCOc1cc(C)nc(NCCCCN(C)C2Cc3ccccc3C2)n1 [Compound 4] | D2R % displacement at 10 μM (Human D2R [3]): significant radioligand displacement
17 | 11000 ± 3000 nM |  |  | 820 ± 180 nM |  | CCCN(CCCCC(=O)Nc1nc2c(CC)cccc2s1)C1Cc2ccccc2C1 [Compound 24] | 
18 |  |  |  | 5000 ± 1300 nM | 5±2% | CNC(=O)CCCCN(C)C1Cc2ccccc2C1 [Compound 13] | activity for the A2AAR (in words) (Human A2AAR [1]; binding assay): no activity
19 |  |  |  | 290 ± 30 nM | 9 ± 6% | CN(CCCCNc1ncc(-c2ccccc2)o1)C1Cc2ccccc2C1 [Compound 9] | 
20 | 1200 ± 100 nM | 9700 ± 3800 nM | 93 ± 12% | 900 ± 80 nM | significant radioligand displacement | Cc1cccc2sc(NC(=O)CCCCN(C)C3Cc4ccccc4C3)nc12 [Compound 2] | D2R % displacement at 10 μM (Human D2R [3]): significant radioligand displacement; D2R binding affinity Ki (Human D2R [3]; [5]): submicromolar
21 | 470 ± 110 nM | 1200 ± 200 nM | 104 ± 6% | 900 ± 100 nM |  | CCCN(CCCCC(=O)Nc1nc2c(OC)ccc(Cl)c2s1)C1Cc2ccccc2C1 [Compound 28] | 
22 | 990 ± 240 nM | 750 ± 70 nM | 81 ± 5% | 340 nM |  | CCCN(CCCCC(=O)Nc1nc2c(C)cccc2s1)C1Cc2ccccc2C1 [Compound 25] | 
23 |  |  |  | 80 ± 10 nM | 5 ± 1% | CN(CCCCC(=O)Nc1nc2ncccc2[nH]1)C1Cc2ccccc2C1 [Compound 8] | 
24 | 670 ± 110 nM | 1200 ± 300 nM | 51 ± 4% | 880 ± 110 nM |  | CN(CCCC(=O)Nc1nc2c(Br)cccc2s1)C1Cc2ccccc2C1 [Compound 32] | 
25 | 300 ± 50 nM | 31000 ± 12000 nM | 103 ± 3% | 1300 ± 200 nM |  | COc1ccc(OC)c2sc(NC(=O)CCN(C)C3Cc4ccccc4C3)nc12 [Compound 37] | 
26 | 460 ± 40 nM | 980 ± 10 nM | 105 ± 5% | 670 ± 70 nM |  | CCCN(CCCCC(=O)Nc1nc2c(OC)ccc(C)c2s1)C1Cc2ccccc2C1 [Compound 29] | Kb (Human A2AAR [4]): 1900 ± 700 nM
27 | 420 ± 40 nM | 23000 ± 9000 nM | 82 ± 22% | 510 ± 50 nM |  | CN(CCCCC(=O)Nc1nc2c(Cl)cccc2s1)C1Cc2ccccc2C1 [Compound 19] | 
